The values that follow come from PubChem BioAssay (NCI).

Where “and” joins values, the source holds several entries; their conditions need not be identical. Identical values can stand only once.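 A five-concentration, 48-hour dose response in 96-well plates underlies each endpoint, interpolated linearly between surrounding concentrations. At the GI50, growth is halved. Definition used: TGI = concentration required for complete inhibition of growth.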

Some test systems named below: NCI-H460 lung; M14 melanoma; EKVX NSCLC; HT29 colon; KM12 colon; HOP-92 NSCLC; RPMI-8226 leukemia; HCT-116 colon; OVCAR-5 ovarian; DU-145 prostate.
Assay in all cases: NCI anticancer screen, dose series, 48 h

With `CCc1cccc(C(C)C)c1NC(=O)C(=O)C1C(=O)Nc2ccccc2S1=O` (configuration not stated), the TGI in the experiment on NCI-H460 lung, in the experiment with M14 melanoma, in the experiment with EKVX NSCLC, with HT29 colon, in the experiment on KM12 colon and in the experiment on HOP-92 NSCLC was greater than 100 µM throughout. Also, the TGI in the experiment with RPMI-8226 leukemia, in the experiment on HCT-116 colon, in the experiment on OVCAR-5 ovarian and in the experiment with DU-145 prostate was greater than 100 µM in each case.

Regarding `CC1=C(C(=O)OC2CC3CCC2(C)C3(C)C)C2Nc3ccccc3N(C)C2O1` (configuration not stated), the TGI in the experiment on NCI-H460 lung came out at 3.7 µM; with M14 melanoma, 3.22 µM; in the experiment with EKVX NSCLC, 21.1 µM; with HT29 colon it was 3.08 µM; in the experiment on KM12 colon, 8.67 µM; in the experiment on HOP-92 NSCLC, 20.8 µM. For the same molecule, the TGI in the experiment on RPMI-8226 leukemia came out at 6.78 µM; with HCT-116 colon, 7.36 µM; in the experiment on OVCAR-5 ovarian, 25.9 µM; in the experiment on DU-145 prostate, 2.79 µM.

With `CC1OC(OC2C(OC(=O)[C@]34CCC(C)(C)C[C@H]3C3=CC[C@@H]5[C@@]6(C)CC[C@H](OC7OC(C(=O)O)C(O)C(O)C7O)C(C)(C)[C@@H]6CC[C@@]5(C)[C@]3(C)C[C@H]4O)OCC(O)C2O)C(O)C(O)C1OC1OCC(O)C(O)C1O` (some centres not stated), the TGI is 48.3 µM and 33.7 µM in the experiment on NCI-H460 lung; 28.1 µM and 21.6 µM with M14 melanoma; 21.3 µM and 13 µM in the experiment on EKVX NSCLC; 20.2 µM and 17 µM with HT29 colon; 22.3 µM and 14.2 µM in the experiment on KM12 colon; 26.9 µM and 24.4 µM with HOP-92 NSCLC. Besides, the TGI in the experiment with RPMI-8226 leukemia is 30.4 µM and 94 µM; in the experiment with HCT-116 colon it was 28.1 µM and 22.1 µM; with OVCAR-5 ovarian, 28.5 µM and 23 µM; in the experiment on DU-145 prostate it was 28.9 µM and 27.4 µM. Besides, the GI50 in the experiment on EKVX NSCLC was 7.47 µM and 3.7 µM; with KM12 colon, 9.85 µM and 3.45 µM.

With `CN(C)C(C1=C(O)C(c2ccccc2)N(c2ccccc2)C1=O)N1CCOCC1` (configuration not stated), the TGI in the experiment with NCI-H460 lung, with M14 melanoma, in the experiment on EKVX NSCLC, in the experiment with HT29 colon, in the experiment on KM12 colon and with HOP-92 NSCLC was greater than 10 µM throughout. Also, the TGI in the experiment on RPMI-8226 leukemia, in the experiment on HCT-116 colon, in the experiment on OVCAR-5 ovarian and in the experiment with DU-145 prostate was greater than 10 µM throughout.

Turning to `O=c1c2cc(-c3ccccc3)cnc2sn1-c1ccc(Br)cc1`, the TGI in the experiment with NCI-H460 lung, with M14 melanoma, with EKVX NSCLC, in the experiment on HT29 colon, in the experiment on KM12 colon and in the experiment on HOP-92 NSCLC was greater than 100 µM in each case. The TGI with RPMI-8226 leukemia, in the experiment with HCT-116 colon, with OVCAR-5 ovarian and with DU-145 prostate was greater than 100 µM throughout.

Take `Cc1ccc(CC(Cc2ccccc2C)C(=O)O)c(C(=O)O)c1` (configuration not stated): the TGI in the experiment with NCI-H460 lung, in the experiment on M14 melanoma, in the experiment on EKVX NSCLC, in the experiment on HT29 colon, with KM12 colon and with HOP-92 NSCLC was greater than 100 µM throughout. Further, the TGI in the experiment on RPMI-8226 leukemia, in the experiment on HCT-116 colon, with OVCAR-5 ovarian and with DU-145 prostate was greater than 100 µM throughout.

Turning to `COc1cc2c(cc1OC)OC(c1c(OC)ccc(OC)c1O)CC2` (configuration not stated), the TGI in the experiment on NCI-H460 lung, in the experiment on M14 melanoma, with EKVX NSCLC, in the experiment with HT29 colon, in the experiment with KM12 colon and in the experiment on HOP-92 NSCLC was greater than 100 µM throughout. Besides, the TGI with RPMI-8226 leukemia, in the experiment on HCT-116 colon, in the experiment with OVCAR-5 ovarian and in the experiment on DU-145 prostate was greater than 100 µM throughout.

For `CNC(=O)C(C)NC(=O)C(Cc1ccccc1)NC(=O)c1ccccc1` (configuration not stated), the TGI in the experiment with NCI-H460 lung, with M14 melanoma, in the experiment with EKVX NSCLC, in the experiment with HT29 colon, in the experiment on KM12 colon and with HOP-92 NSCLC was greater than 100 µM throughout. In addition, the TGI in the experiment on RPMI-8226 leukemia, in the experiment with HCT-116 colon, with OVCAR-5 ovarian and in the experiment on DU-145 prostate was greater than 100 µM in each case.

On to `NC1N=C(c2ccc(Cl)cc2)C2=C(N1)c1ccccc1CC2` (configuration not stated), for which the TGI in the experiment on NCI-H460 lung is greater than 100 µM; with M14 melanoma, greater than 59.3 µM; in the experiment with EKVX NSCLC, greater than 100 µM; in the experiment on HT29 colon, 28.4 µM; in the experiment on KM12 colon, greater than 67 µM; with HOP-92 NSCLC, greater than 100 µM. Besides, the TGI in the experiment with RPMI-8226 leukemia is 12.2 µM; in the experiment on HCT-116 colon, greater than 56.9 µM; in the experiment on OVCAR-5 ovarian, greater than 100 µM; in the experiment on DU-145 prostate, greater than 100 µM.

`COc1cc(OC)cc(OCc2nc3cc(C(F)(F)F)ccc3nc2-c2ccccc2)c1`: the TGI in the experiment with NCI-H460 lung, in the experiment with M14 melanoma, with EKVX NSCLC, in the experiment on HT29 colon, in the experiment with KM12 colon and in the experiment with HOP-92 NSCLC was greater than 100 µM in each case. For the same molecule, the TGI in the experiment with RPMI-8226 leukemia, in the experiment with HCT-116 colon, in the experiment with OVCAR-5 ovarian and in the experiment on DU-145 prostate was greater than 100 µM throughout.

Take `CSc1ncnc2c1ncn2CCC(=O)O`: the TGI in the experiment on NCI-H460 lung, in the experiment with M14 melanoma, in the experiment on EKVX NSCLC, in the experiment on HT29 colon, in the experiment on KM12 colon and with HOP-92 NSCLC was greater than 100 µM throughout. Further, the TGI in the experiment with RPMI-8226 leukemia, with HCT-116 colon, in the experiment on OVCAR-5 ovarian and with DU-145 prostate was greater than 100 µM in each case.
